Source: patent publication EP0189596A1, “Benzofuran and benzothiophene derivatives” (SHIONOGI & CO., LTD., priority 1984, dated 1986)

How the values were obtained:
[1] = Bioassay for Diuretic Effect on Rats; type: in vivo, SLc:SD rats; conditions: Rat, oral, percentage to control (100%)
Description: (§1) I . Test Method: • Experiments with rats and mice were carried out according to Assay Programs #27-104 and #27-106, respectively. The outline is as follows.
SLc:SD 8-week-old rats (male, about 250g body-weight each) were used for the test. A few lumps of sugar in place of ordinary diets were given on the morning of the day before the test day and 5% glucose solution was given orally at a rate of 20 ml/kg in the evening (approximately at 4 p.m.) of the […]. In the morning for the test, a sample which was prepared by suspending or dissolving a test compound in 2X gum arabic was orally administered to each at a dose of 20 ml/kg. On the other hand, mere by 2% gum arabic was orally administered to the control group at 20 ml/kg. Immediately after the administration, the test animals were put in a plastic cage for the metabolic tests and their urine samples were collected for 5 hours. The cumulative urine volume, urinary sodium (Na^+), and urinary potassium (K^+) were quantitatively determined.
(§2) Results regarding the urine volume are shown by percentages to control (100%). Also, results regarding the urinary sodium (Na^+) and the urinary potassium (K^+) are shown by percentages to control (100%).

[2] = Bioassay for Diuretic Effect on Mice; type: in vivo, Slc:ddy mice; conditions: Mouse, oral, Dose (mg) 30, urine collected for 4 hours, percentage to control (100%)
Description: as §1
Slc:ddy 5-week-old mice (female, about 20g body-weight each) were used for the test. From the morning of the day before the test day, the mice were fasted but water. In the morning of the test day, a sample which was prepared by suspending or dissolving a test compound in 2% gum arabic was orally administered to each at 30 ml/kg. On the other hand, mere by 2% gum arabic was orally administered to the control group at 30 ml/kg. Immediately after the administration, 5 mice employed were put in a plastic cage for the metabolic tests and their urine samples were collected for 4 hours. The cumulative urine volume, urinary sodium (Na^+), and urinary potassium (K^+) were quantitatively determined. II. Test Results
as §2

[3] = Dose (mg) 50, urine collected for 5 hours
[4] = Dose (mg) 10, urine collected for 5 hours

For `CNC(=S)CC(=O)c1cc2c(c(Cl)c1Cl)OC(C(=O)O)C2` (stereo not drawn) [Example 67, 6,7-dichloro-5-[[N-methyl(thiocarbamoyl)]-acbtyl]-2,3-dihydrobenzofuran-2-carbaxylic acid], the “Urinary K^+ (%)” value [1, 3] was 306^※ %, the “Urinary Na^+ (%)” value [1, 3] was 377^※ % and the “Urine Vol. (%)” value [1, 3] was 148^※ %. For the same compound, the “Urinary K^+ (%)” value [2] was 232^※ %, the “Urinary Na^+ (%)” value [2] was 610^※ % and the “Urine Vol. (%)” value [2] was 192^※ %.
For `CC(C(=O)c1cc2c(c(Cl)c1Cl)OC(C(=O)O)C2)=C1OCCS1` (stereo not drawn) [Example 21], the “Urinary K^+ (%)” value [1, 3] was 178※ %, the “Urinary Na^+ (%)” value [1, 3] was 179※ % and the “Urine Vol. (%)” value [1, 3] was 104%. The “Urinary K^+ (%)” value [2] was 273※ %, the “Urinary Na^+ (%)” value [2] was 704※ % and the “Urine Vol. (%)” value [2] was 155※ %.
For `CSC(=CC(=O)c1cc2c(c(Cl)c1Cl)OC(C=O)C2)SC` (stereo not drawn) [Example 28], the “Urinary K^+ (%)” value [2] was 260^※ %, the “Urinary Na^+ (%)” value [2] was 905^※ % and the “Urine Vol. (%)” value [2] was 222^※ %.
For `CSC(=CC(=O)c1cc2c(c(Cl)c1Cl)OC(C(=O)OCC(=O)O)C2)SC` (stereo not drawn) [Example 17, 6.7-Dichloro-5-[3,3-bis(metbylthic)-2-propenoyl]-2,3-dibydro-1-benzofuran-2-carboxyacetic acid], the “Urinary K^+ (%)” value [1, 3] was 285※ %, the “Urinary Na^+ (%)” value [1, 3] was 478※ % and the “Urine Vol. (%)” value [1, 3] was 144※ %. For the same compound, the “Urinary K^+ (%)” value [2] was 277※ %, the “Urinary Na^+ (%)” value [2] was 970※ % and the “Urine Vol. (%)” value [2] was 216※ %.
With `C=C1CNC(=CC(=O)c2cc3c(c(Cl)c2Cl)OC(C(=O)O)C3)S1` (stereo not drawn) [Example 80] the “Urinary K^+ (%)” value [1, 4] was 161^※ %, the “Urinary Na^+ (%)” value [1, 4] was 211^※ % and the “Urine Vol. (%)” value [1, 4] was 101%. The “Urinary K^+ (%)” value [2] was 344^※ %, the “Urinary Na^+ (%)” value [2] was 738^※ % and the “Urine Vol. (%)” value [2] was 264^※ %.
With `O=C(C=C1NC=CS1)c1cc2c(c(Cl)c1Cl)OC(C(=O)O)C2` (stereo not drawn) [Example 70, 6,7-dichloro-5-((4-thiazolin-2-ylidene)acetyl]-2,3-dihydro-benzofuran-2-carboxylic acid] the “Urinary K^+ (%)” value [1, 3] was 374^※ %, the “Urinary Na^+ (%)” value [1, 3] was 459^※ % and the “Urine Vol. (%)” value [1, 3] was 154^※ %. For the same compound, the “Urinary K^+ (%)” value [2] was 178^※ %, the “Urinary Na^+ (%)” value [2] was 410^※ % and the “Urine Vol. (%)” value [2] was 144^※ %.
For `CSC(SC)=C(C)C(=O)c1cc2c(c(C)c1Cl)OC(C(=O)O)C2` (stereo not drawn) [Example 14], the “Urinary K^+ (%)” value [2] was 330※ %, the “Urinary Na^+ (%)” value [2] was 743※ % and the “Urine Vol. (%)” value [2] was 296※ %.
With `CC(C(=O)c1cc2c(c(Cl)c1Cl)OC(C(=O)O)C2)=C1SCCS1` (stereo not drawn) [Example 3] the “Urinary K^+ (%)” value [1, 3] was 217※ %, the “Urinary Na^+ (%)” value [1, 3] was 291※ % and the “Urine Vol. (%)” value [1, 3] was 153※ %. The “Urinary K^+ (%)” value [2] was 304※ %, the “Urinary Na^+ (%)” value [2] was 1370※ % and the “Urine Vol. (%)” value [2] was 270※ %.
With `CSc1[nH]ccc1C(=O)c1cc2c(c(Cl)c1Cl)OC(C(=O)O)C2` (stereo not drawn) [Example 98, 6,7-dichloro-5-[2-(methylthio)pyrrol-3-yl-carbonyl]-2,3-dihydrobenzofuran-2-carboxylic acid] the “Urinary K^+ (%)” value [1, 4] was 254^※ %, the “Urinary Na^+ (%)” value [1, 4] was 445^※ % and the “Urine Vol. (%)” value [1, 4] was 157^※ %. The “Urinary K^+ (%)” value [2] was 292^※ %, the “Urinary Na^+ (%)” value [2] was 810^※ % and the “Urine Vol. (%)” value [2] was 222^※ %.
